Data taken from patent EP4703357A1, “TRIAZOLYL-CONTAINING COMPOUNDS” (Chia Tai Tianqing Pharmaceutical Group Co., Ltd., priority 2023, dated 2024).
Where two headings read alike, the source gives them in different places.

Assays:
[1] = system: OCI-LY10 human diffuse large B-cell lymphoma NOD-SCID mouse subcutaneous xenograft tumor model; assay: Efficacy in OCI-LY10 subcutaneous xenograft tumor model; format: in vivo, NOD-SCID mice; conditions: for TGI(%): by tumor weight
Text: Efficacy evaluation in OCI-LY10 human diffuse large B-cell lymphoma NOD-SCID mouse subcutaneous xenograft tumor model • (1) SPF female NOD-SCID mice (source: Jiangsu Huachuang Xinnuo Pharmaceutical Technology Co., Ltd.) were inoculated subcutaneously at the right side armpit with OCI-LY10 human diffuse large B-cell lymphoma cells at 1 × 10^7 cells/mouse. When the mean tumor volume reached about 200 mm^3, the animals were divided into a control group (vehicle control group) and treatment groups (compound groups).
The administration dose included 1 mg/kg, 2 mg/kg, and 4 mg/kg, and the administration frequency was once daily. The day of grouping was defined as day 0, and intragastric administration was started on day 0 for 21 consecutive days.
Alternatively, the administration dose was 4 mg/kg, and the administration frequency was 5 times per week. The day of grouping was defined as day 0, and intragastric administration was started on day 0 five times per week for two consecutive weeks.
The tumor volume was measured once every 3 days, and meanwhile, the mice were weighed and the data were recorded; the general behavior of the mice was observed and recorded every day. After the experiment was completed, the tumors were removed, weighed, and photographed.
The detection index and the calculation formula are as follows: • Tumor volume TV (mm^3) = 1/2 × (a × b^2), wherein a is the long diameter of the tumor, and b is the short diameter of the tumor; • Relative tumor volume RTV = TVt/TV0, wherein TV0 is the tumor volume on day 0, and TVt is the tumor volume at each measurement; • Relative tumor proliferation rate T/C (%) = (TRTV/CRTV) × 100%, wherein TRTV is RTV of the treatment group, and CRTV is RTV of the vehicle control group; • Tumor growth inhibition rate TGI (%) = (1 - TW/TW0) × 100%; wherein TW is the tumor weight of the treatment group, and TW0 is the tumor weight of the vehicle control group; • Weight change rate WCR (%) = (Wtt - Wt0)/Wt0 × 100%, wherein Wt0 is the body weight of the mouse on day 0, and Wtt is the body weight of the mouse at each measurement.

Jurkat cells = assay: Inhibitory activity on Jurkat cell proliferation (CCK-8); format: cell-based; conditions: Homo sapiens, 72 h incubation
Method: (§1) Jurkat cells in a good growth state were collected into a centrifuge tube, adjusted to a cell density of 5 × 10^4 cells/mL, and seeded in a 96-well plate (100 µL/well). The cells were incubated overnight in a cell incubator. Compounds were added using a nanoliter pipettor such that the final concentrations of the compounds were 1000 nM-0.46 nM (the addition was performed in duplicate). Meanwhile, a control was set. After another 72 h of incubation in the cell incubator, the assay reagent CCK-8 (manufacturer: Dojindo Laboratories, Beijing; 10 µL/well) was added. After 2 h of incubation in the cell incubator, absorbance was measured at 450 nm on an Envision microplate reader. A four-parameter analysis was performed, a dose-response curve was fit, and IC50 was calculated.

[2] = In vitro liver microsomal stability, human; format: in vitro ADME; conditions: human liver microsome 0.5 mg/mL, NADPH, 37 °C, 1 h
Method: (§2) Liver microsome incubation samples were prepared by mixing a PBS buffer (pH = 7.4), a liver microsome solution (0.5 mg/mL), a test compound, and an NADPH + MgCl2 solution, and incubated at 37 °C and 300 rpm for 1 h. Zero-hour samples were prepared by mixing a PBS buffer (pH = 7.4), a liver microsome solution (0.5 mg/mL), and a test compound. An acetonitrile solution containing an internal standard was added to the samples, and supernatants were prepared by protein precipitation, diluted, and then assayed by LC/MS/MS. Table 17. In vitro metabolic stability of related compounds in liver microsomes of various species

[3] = In vitro liver microsomal stability, mouse; format: in vitro ADME; conditions: mouse liver microsome 0.5 mg/mL, NADPH, 37 °C, 1 h
Method: as §2

OCI-LY10 cells = assay: Inhibitory activity on OCI-LY10 cell proliferation (CCK-8); format: cell-based; conditions: Homo sapiens, 72 h incubation
Method: as §1, with “OCI-LY10 cells” for “Jurkat cells”, “of 9” for “of 5”

Mouse pharmacokinetics [4] = format: in vivo; conditions: ICR, plasma, po, 3 mg/kg, Mice administered intragastrically 3 mpk
Method: ICR mice weighing 18-22 g were randomized into groups of 9 mice per group after 3-5 days of acclimatization and then administered intragastrically at a dose of 3 mg/kg.
Plasma samples to be tested were prepared by taking blood from the orbit at time points of 15 min, 30 min, 1 h, 2 h, 4 h, 6 h, 8 h, 10 h, and 24 h.
20 µL of each plasma sample to be tested and a standard curve sample were taken, and an acetonitrile solution containing an internal standard was added. A supernatant was obtained by protein precipitation, diluted, and then assayed by LC/MS/MS.
Pharmacokinetic parameters were fitted using a non-compartmental model.

Mouse pharmacokinetics [5] = format: in vivo, ICR mice; conditions: ICR, plasma
[6] = Table 20, 4mg/kg intragastric, Day 18 of assay
[7] = Table 19, 2mg/kg intragastric, Day 21 of assay
[8] = 1 mg/kg, Mice administered by single intravenous injection 1 mpk
[9] = Table 19, 4mg/kg intragastric, Day 21 of assay

NC(=O)/C(=C/n1cnc(-c2cc(C(F)(F)F)nc(C(F)(F)F)c2)n1)c1cnc2ccccc2c1 [11(11-A)]
RTV (mean±SD) [1, 6]: 1.7±0.2
T/C(%) [1, 6]: 21.8%
TV(mm^3) (mean±SD) [1, 6]: 326±52 mm^3
Weight change rate (%) (mean ± SD) ([1]; Table 20, 4mg/kg intragastric, Day 21 of assay): 0.6±8.1%
TGI(%) ([1]; Table 20, 4mg/kg intragastric, Day 21 of assay, ** p < 0.01 vs control): 89.7%**
IC50 (Jurkat cells): ≤ 0.02 µM
Human liver microsome Residuals at 60 min (%) [2]: 86.18%
Mouse liver microsome Residuals at 60 min (%) [3]: 89.63%
IC50 (OCI-LY10 cells): ≤ 0.04 µM

Cc1ccc(/C(=C\n2cnc(-c3cc(C(F)(F)F)nc(C(F)(F)F)c3)n2)C(N)=O)cn1 [21(21-A)]
RTV (mean±SD) [1, 7]: 2.4±0.4
T/C(%) [1, 7]: 22.2%
TV(mm^3) (mean±SD) [1, 7]: 520±178 mm^3
Weight change rate (%) (mean ± SD) ([1]; Table 19, 2mg/kg intragastric, Day 23 of assay): -2.0±6.5%
TGI(%) ([1]; Table 19, 2mg/kg intragastric, Day 23 of assay, * p < 0.05 vs control): 89.3%*
Cmax (Mouse pharmacokinetics [4]): 871 ng/mL
Tmax (Mouse pharmacokinetics [4]): 1 h
half-life (Mouse pharmacokinetics [4]): 2.35 h
AUC(0-t) (Mouse pharmacokinetics [4]; read-out: AUC (0-24)): 4750 ng·h/mL
Human liver microsome Residuals at 60 min (%) [2]: 94.26%
Mouse liver microsome Residuals at 60 min (%) [3]: 99.28%
AUC(0-inf) (Mouse pharmacokinetics [5]; [8]): 1630 ng·h/mL
clearance (Mouse pharmacokinetics [5]; [8]): 10.2 mL/min/kg
half-life (Mouse pharmacokinetics [5]; [8]): 3.02 h
AUC(0-t) (Mouse pharmacokinetics [5]; 1 mg/kg, Mice administered by single intravenous injection 1 mpk, read-out: AUC (0-24)): 1630 ng·h/mL
AUC(0-inf) (Mouse pharmacokinetics [5]; po, 3 mg/kg, Mice administered intragastrically 3 mpk): 4760 ng·h/mL

NC(=O)/C(=C/n1cnc(-c2cc(C(F)(F)F)nc(C(F)(F)F)c2)n1)c1cnc2cccnc2c1 [25(25-A)]
RTV (mean±SD) [1, 9]: 1.8±0.6
T/C(%) [1, 9]: 16.7%
TV(mm^3) (mean±SD) [1, 9]: 360±105 mm^3
Weight change rate (%) (mean ± SD) ([1]; Table 19, 4mg/kg intragastric, Day 23 of assay): 1.7±5.3%
TGI(%) ([1]; Table 19, 4mg/kg intragastric, Day 23 of assay, * p < 0.05 vs control): 91.1%*
IC50 (Jurkat cells): ≤ 0.02 µM
Human liver microsome Residuals at 60 min (%) [2]: 110.48%
Mouse liver microsome Residuals at 60 min (%) [3]: 94.66%
IC50 (OCI-LY10 cells): ≤ 0.04 µM
